Measurements reported in US20260055103A1, “2,3,4,9-TETRAHYDRO-1H-PYRIDO[3,4-B]INDOLE DERIVATIVES AS ESTROGEN RECEPTOR MODULATORS FOR THE TREATMENT OF CANCER” (Olema Pharmaceuticals, Inc., priority 2022, published 2026).

Target: T1, estrogen receptor (Homo sapiens, UniProt P03372)
T1 construct: endogenous in cells; host or cells: ECC-1 cells
T1 sequence (P03372 1-595): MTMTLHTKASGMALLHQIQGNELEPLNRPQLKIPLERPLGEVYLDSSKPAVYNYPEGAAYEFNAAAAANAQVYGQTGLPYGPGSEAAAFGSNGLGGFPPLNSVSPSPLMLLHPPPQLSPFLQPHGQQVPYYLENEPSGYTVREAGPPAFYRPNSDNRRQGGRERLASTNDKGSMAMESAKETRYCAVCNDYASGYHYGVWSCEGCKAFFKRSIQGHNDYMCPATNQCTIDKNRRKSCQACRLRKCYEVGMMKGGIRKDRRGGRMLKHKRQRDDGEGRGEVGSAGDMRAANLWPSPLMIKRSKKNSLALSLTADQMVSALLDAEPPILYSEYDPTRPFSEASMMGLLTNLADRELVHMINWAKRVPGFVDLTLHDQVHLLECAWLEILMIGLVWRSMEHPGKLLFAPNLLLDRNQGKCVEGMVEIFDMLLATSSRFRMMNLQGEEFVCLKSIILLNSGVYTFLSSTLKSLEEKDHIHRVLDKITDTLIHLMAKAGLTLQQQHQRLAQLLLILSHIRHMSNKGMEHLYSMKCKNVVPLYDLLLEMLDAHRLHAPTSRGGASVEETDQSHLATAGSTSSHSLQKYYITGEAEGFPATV
Experiment: Alkaline phosphatase (AP) assay in ECC-1 cells, agonist mode (no E2) and antagonist mode (500 pM E2)
Type: cell-based
Settings: 3 days, AP activity normalized to 500 pM E2 alone, agonist mode without E2, antagonist mode with 500 pM E2
Method in brief: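 ECC-1 cells in hormone-depleted medium treated 3 days with compound alone (agonist mode) or with 500 pM E2 (antagonist mode). Alkaline phosphatase read by p-nitrophenyl phosphate hydrolysis, 40 min at 42° C, A405. Activity normalized to 500 pM E2 alone.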

Row | SMILES | Activity (estrogen receptor modulation, agonism and antagonism)
1 | C[C@@H]1Cc2c([nH]c3ccccc23)[C@@H](c2ccc(CC3CN(CCC4COC4)C3)s2)N1CC(F)(F)CO [Example I-59, 2,2-difluoro-3-((1S,3R)-3-methyl-1-(5-((1-(2-(oxetan-3-yl)ethyl)azetidin-3-yl)methyl)thiophen-2-yl)-1,3,4,9-tetrahydro-2H-pyrido[3,4-b]indol-2-yl)propan-1-ol] | + (estrogen receptor agonism having (i) at least 80% increase in the E2-normalized signal in the AP assay (agonist mode) and (ii) no more than 80% reduction in the E2-normalized signal in the AP assay (antagonist mode))
2 | C#CCN1CC(Cc2ccc([C@@H]3c4[nH]c5ccccc5c4C[C@@H](C)N3CC(F)(F)CO)s2)C1 [Example I-60, 2,2-difluoro-3-[(1S,3R)-3-methyl-1-[5-[(1-prop-2-ynylazetidin-3-yl)methyl]-2-thienyl]-1,3,4,9-tetrahydropyrido[3,4-b]indol-2-yl]propan-1-ol] | ++ (estrogen receptor antagonism having (i) between 10% and 80% increase in the E2-normalized signal in the AP assay (agonist mode) and (ii) between 10% and 80% reduction in the E2-normalized signal in the AP assay (antagonist mode))
3 | C[C@@H]1Cc2c([nH]c3ccccc23)[C@@H](c2ccc(SC3CN(CCCF)C3)s2)N1CC(C)(C)F [Example I-61, 3-({5-[(1S,3R)-2-(2-fluoro-2-methylpropyl)-3-methyl-1H,2H,3H,4H,9H-pyrido[3,4-b]indol-1-yl]thiophen-2-yl}sulfanyl)-1-(3-fluoropropyl)azetidine] | ++ (estrogen receptor antagonism having (i) between 10% and 80% increase in the E2-normalized signal in the AP assay (agonist mode) and (ii) between 10% and 80% reduction in the E2-normalized signal in the AP assay (antagonist mode))
4 | CCCN1CC(Sc2ccc([C@@H]3c4[nH]c5ccccc5c4C[C@@H](C)N3CC(C)(C)F)s2)C1 [Example I-62, 3-({5-[(1S,3R)-2-(2-fluoro-2-methylpropyl)-3-methyl-1H,2H,3H,4H,9H-pyrido[3,4-b]indol-1-yl]thiophen-2-yl}sulfanyl)-1-propylazetidine] | ++ (estrogen receptor antagonism having (i) between 10% and 80% increase in the E2-normalized signal in the AP assay (agonist mode) and (ii) between 10% and 80% reduction in the E2-normalized signal in the AP assay (antagonist mode))
5 | C[C@@H]1Cc2c([nH]c3ccccc23)[C@@H](c2cnc(NC3CN(CCCF)C3)s2)N1CC(F)(F)CO [Example I-63, 2,2-difluoro-3-[(1S,3R)-1-[2-[[1-(3-fluoropropyl)azetidin-3-yl]amino]thiazol-5-yl]-3-methyl-1,3,4,9-tetrahydropyrido[3,4-b]indol-2-yl]propan-1-ol] | ++ (estrogen receptor antagonism having (i) between 10% and 80% increase in the E2-normalized signal in the AP assay (agonist mode) and (ii) between 10% and 80% reduction in the E2-normalized signal in the AP assay (antagonist mode))
6 | C[C@@H]1Cc2c([nH]c3ccccc23)[C@@H](c2cnc(N[C@H]3CN(CCCF)C[C@H]3F)s2)N1CC(F)(F)CO [Example I-64, 2,2-difluoro-3-[(1S,3R)-1-[2-[[(3S,4R)-4-fluoro-1-(3-fluoropropyl)pyrrolidin-3-yl]amino]thiazol-5-yl]-3-methyl-1,3,4,9-tetrahydropyrido[3,4-b]indol-2-yl]propan-1-ol] | ++ (estrogen receptor antagonism having (i) between 10% and 80% increase in the E2-normalized signal in the AP assay (agonist mode) and (ii) between 10% and 80% reduction in the E2-normalized signal in the AP assay (antagonist mode))
7 | C[C@@H]1Cc2c([nH]c3ccccc23)[C@@H](c2cnc(N[C@H]3CN(CCCF)C[C@@H]3F)s2)N1CC(F)(F)CO [Example I-65, 2,2-difluoro-3-((1S,3R)-1-(2-(((3S,4S)-4-fluoro-1-(3-fluoropropyl)pyrrolidin-3-yl)amino)thiazol-5-yl)-3-methyl-1,3,4,9-tetrahydro-2H-pyrido[3,4-b]indol-2-yl)propan-1-ol] | + (estrogen receptor agonism having (i) at least 80% increase in the E2-normalized signal in the AP assay (agonist mode) and (ii) no more than 80% reduction in the E2-normalized signal in the AP assay (antagonist mode))
8 | C[C@@H]1Cc2c([nH]c3ccccc23)[C@@H](c2cnc(N[C@H]3CCCN(CCCF)C3)s2)N1CC(F)(F)CO [Example I-66] | ++ (estrogen receptor antagonism having (i) between 10% and 80% increase in the E2-normalized signal in the AP assay (agonist mode) and (ii) between 10% and 80% reduction in the E2-normalized signal in the AP assay (antagonist mode))
9 | C[C@@H]1Cc2c([nH]c3ccccc23)[C@@H](c2cnc(N[C@@H]3CCCN(CCCF)C3)s2)N1CC(F)(F)CO [Example I-67, 2,2-difluoro-3-((1S,3R)-1-(2-(((R)-1-(3-fluoropropyl)piperidin-3-yl)amino)thiazol-5-yl)-3-methyl-1,3,4,9-tetrahydro-2H-pyrido[3,4-b]indol-2-yl)propan-1-ol] | + (estrogen receptor agonism having (i) at least 80% increase in the E2-normalized signal in the AP assay (agonist mode) and (ii) no more than 80% reduction in the E2-normalized signal in the AP assay (antagonist mode))
10 | C[C@@H]1Cc2c([nH]c3ccccc23)[C@@H](c2ccc(C3CCN(CCF)CC3)s2)N1CC(C)(C)F [Example I-68, (1S,3R)-1-[5-[1-(2-fluoroethyl)-4-piperidyl]-2-thienyl]-2-(2-fluoro-2-methyl-propyl)-3-methyl-1,3,4,9-tetrahydropyrido[3,4-b]indole] | ++ (estrogen receptor antagonism having (i) between 10% and 80% increase in the E2-normalized signal in the AP assay (agonist mode) and (ii) between 10% and 80% reduction in the E2-normalized signal in the AP assay (antagonist mode))
11 | CCN1CCC(c2ccc([C@@H]3c4[nH]c5ccccc5c4C[C@@H](C)N3CC(C)(C)F)s2)CC1 [Example I-69, (1S,3R)-1-(5-(1-ethylpiperidin-4-yl)thiophen-2-yl)-2-(2-fluoro-2-methylpropyl)-3-methyl-2,3,4,9-tetrahydro-1H-pyrido[3,4-b]indole] | ++ (estrogen receptor antagonism having (i) between 10% and 80% increase in the E2-normalized signal in the AP assay (agonist mode) and (ii) between 10% and 80% reduction in the E2-normalized signal in the AP assay (antagonist mode))
12 | CCCN1CCC(c2ccc([C@@H]3c4[nH]c5ccccc5c4C[C@@H](C)N3CC(C)(C)F)s2)CC1 [Example I-70, (1S,3R)-2-(2-fluoro-2-methyl-propyl)-3-methyl-1-[5-(1-propyl-4-piperidyl)-2-thienyl]-1,3,4,9-tetrahydropyrido[3,4-b]indole] | + (estrogen receptor agonism having (i) at least 80% increase in the E2-normalized signal in the AP assay (agonist mode) and (ii) no more than 80% reduction in the E2-normalized signal in the AP assay (antagonist mode))
13 | C[C@@H]1Cc2c([nH]c3ccccc23)[C@@H](c2ccc(C3CCN(CCCF)CC3)s2)N1CC(C)(C)F [Example I-71, (1S,3R)-2-(2-fluoro-2-methyl-propyl)-1-[5-[1-(3-fluoropropyl)-4-piperidyl]-2-thienyl]-3-methyl-1,3,4,9-tetrahydropyrido[3,4-b]indole] | + (estrogen receptor agonism having (i) at least 80% increase in the E2-normalized signal in the AP assay (agonist mode) and (ii) no more than 80% reduction in the E2-normalized signal in the AP assay (antagonist mode))
14 | C[C@@H]1Cc2c([nH]c3ccccc23)[C@@H](c2cnc(N[C@@H]3CN(CCCF)C[C@@H]3F)s2)N1CC(F)(F)CO [Example I-72, 2,2-difluoro-3-[(1S,3R)-1-[2-[[(3R,4S)-4-fluoro-1-(3-fluoropropyl)pyrrolidin-3-yl]amino]thiazol-5-yl]-3-methyl-1,3,4,9-tetrahydropyrido[3,4-b]indol-2-yl]propan-1-ol] | ++ (estrogen receptor antagonism having (i) between 10% and 80% increase in the E2-normalized signal in the AP assay (agonist mode) and (ii) between 10% and 80% reduction in the E2-normalized signal in the AP assay (antagonist mode))
15 | C[C@@H]1Cc2c([nH]c3ccccc23)[C@@H](c2cnc(N[C@H]3CCN(CCCF)C3)s2)N1CC(F)(F)CO [Example I-73, 2,2-difluoro-3-[(1S,3R)-1-[2-[[(3S)-1-(3-fluoropropyl)pyrrolidin-3-yl]amino]thiazol-5-yl]-3-methyl-1,3,4,9-tetrahydropyrido[3,4-b]indol-2-yl]propan-1-ol] | ++ (estrogen receptor antagonism having (i) between 10% and 80% increase in the E2-normalized signal in the AP assay (agonist mode) and (ii) between 10% and 80% reduction in the E2-normalized signal in the AP assay (antagonist mode))
